Data reported in ChEMBL document CHEMBL1201862, “PubChem BioAssay data set” (2004).
Active and inactive are the calls of the source.

Assays:
[1] = HEp-2 cell cytotoxicity, dose response, cytotoxicity control for RSV inhibitor project, HTS (AID 2410); type: functional; details: human respiratory syncytial virus
[2] = biological target: T1, Carboxy-terminal domain RNA polymerase II polypeptide A small phosphatase 1 (Homo sapiens, UniProt Q9GZU7); assay: inhibitors of CTDSP1, concentration-response testing, biochemical assay, absorbance-based, actives from ultra-high-throughput screening (AID 540297); type: functional
T1 sequence (Q9GZU7 whole entry): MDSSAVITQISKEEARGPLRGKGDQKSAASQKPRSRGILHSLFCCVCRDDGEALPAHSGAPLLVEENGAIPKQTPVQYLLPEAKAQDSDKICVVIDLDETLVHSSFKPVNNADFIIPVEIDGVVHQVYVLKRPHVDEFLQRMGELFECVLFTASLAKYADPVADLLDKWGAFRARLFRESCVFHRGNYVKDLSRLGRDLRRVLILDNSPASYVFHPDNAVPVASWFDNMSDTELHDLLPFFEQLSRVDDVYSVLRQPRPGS

[3] = C. albicans growth with fluconazole, confirmation, fluorescence, retest (AID 2467); type: functional, cell-based
[4] = NIH-3T3 fibroblast cytotoxicity, dose response, cytotoxicity control, cell-based, fluorescence, Alamar Blue, secondary assay (AID 2327); type: functional;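 further: NIH-3T3 mouse fibroblasts cultured with fluconazole at 8 µg/mL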
[5] = biological target: T2, Ubiquitin-conjugating enzyme E2 N (Homo sapiens, UniProt P61088); type: functional;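 further: Dose-response confirmation in a TR-FRET assay detecting UBC13-driven polyubiquitin chain formation, inhibition measured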
T2 sequence (P61088 whole entry): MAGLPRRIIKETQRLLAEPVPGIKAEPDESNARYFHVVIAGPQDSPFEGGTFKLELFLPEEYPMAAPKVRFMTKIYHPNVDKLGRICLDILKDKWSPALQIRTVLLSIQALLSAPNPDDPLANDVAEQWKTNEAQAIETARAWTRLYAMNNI

[6] = biological target: FAD-linked sulfhydryl oxidase ALR (Homo sapiens, UniProt P55789); assay: inhibitors of human ALR sulfhydryl oxidase, dose response, biochemical, H2O2 detection, luminescence, cherry-pick (AID 493248)
Sequence of FAD-linked sulfhydryl oxidase ALR (P55789 whole entry): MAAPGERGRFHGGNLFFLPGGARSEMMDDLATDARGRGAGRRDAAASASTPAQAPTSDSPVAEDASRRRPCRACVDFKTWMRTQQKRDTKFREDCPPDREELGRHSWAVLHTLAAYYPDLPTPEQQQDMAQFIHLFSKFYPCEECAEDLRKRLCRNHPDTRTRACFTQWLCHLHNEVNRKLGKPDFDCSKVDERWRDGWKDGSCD

Cytochrome P450 2C9 = Cytochrome P450 2C9 (Homo sapiens, UniProt P11712)
Sequence of Cytochrome P450 2C9 (P11712 whole entry): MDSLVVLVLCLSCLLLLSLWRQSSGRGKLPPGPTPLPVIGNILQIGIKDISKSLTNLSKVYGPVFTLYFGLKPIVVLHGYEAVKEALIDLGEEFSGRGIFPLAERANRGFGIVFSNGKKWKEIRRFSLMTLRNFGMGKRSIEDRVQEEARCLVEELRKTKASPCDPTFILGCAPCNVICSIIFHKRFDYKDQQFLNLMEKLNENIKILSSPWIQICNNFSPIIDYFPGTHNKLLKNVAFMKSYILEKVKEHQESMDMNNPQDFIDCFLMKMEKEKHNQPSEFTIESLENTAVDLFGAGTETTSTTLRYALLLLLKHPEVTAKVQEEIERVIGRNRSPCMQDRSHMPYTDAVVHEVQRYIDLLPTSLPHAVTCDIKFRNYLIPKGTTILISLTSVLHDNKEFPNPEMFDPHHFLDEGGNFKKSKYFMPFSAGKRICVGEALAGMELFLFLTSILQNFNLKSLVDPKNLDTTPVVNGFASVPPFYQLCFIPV

Cytochrome P450 3A4 = Cytochrome P450 3A4 (Homo sapiens, UniProt P08684);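 further: CYP3A4 tested as one member of a cytochrome P450 panel screen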
Sequence of Cytochrome P450 3A4 (P08684 whole entry): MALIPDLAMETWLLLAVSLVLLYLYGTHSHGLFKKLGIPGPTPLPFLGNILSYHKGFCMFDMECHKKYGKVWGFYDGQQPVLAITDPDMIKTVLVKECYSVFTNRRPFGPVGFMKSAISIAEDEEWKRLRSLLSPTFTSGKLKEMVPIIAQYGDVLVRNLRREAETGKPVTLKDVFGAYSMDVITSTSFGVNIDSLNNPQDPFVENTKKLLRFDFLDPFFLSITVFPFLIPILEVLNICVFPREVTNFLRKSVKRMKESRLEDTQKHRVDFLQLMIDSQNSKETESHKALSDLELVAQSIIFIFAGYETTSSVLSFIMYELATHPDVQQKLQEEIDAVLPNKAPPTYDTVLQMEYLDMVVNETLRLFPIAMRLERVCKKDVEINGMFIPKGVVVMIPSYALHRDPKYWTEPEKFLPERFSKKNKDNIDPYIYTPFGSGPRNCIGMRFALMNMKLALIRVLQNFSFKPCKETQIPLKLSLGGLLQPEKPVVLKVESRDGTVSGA

Cytochrome P450 1A2 = biological target: T3, Cytochrome P450 1A2 (Homo sapiens, UniProt P05177);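 further: PubChem cytochrome P450 panel assay, CYP1A2 panel member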
T3 sequence (P05177 whole entry): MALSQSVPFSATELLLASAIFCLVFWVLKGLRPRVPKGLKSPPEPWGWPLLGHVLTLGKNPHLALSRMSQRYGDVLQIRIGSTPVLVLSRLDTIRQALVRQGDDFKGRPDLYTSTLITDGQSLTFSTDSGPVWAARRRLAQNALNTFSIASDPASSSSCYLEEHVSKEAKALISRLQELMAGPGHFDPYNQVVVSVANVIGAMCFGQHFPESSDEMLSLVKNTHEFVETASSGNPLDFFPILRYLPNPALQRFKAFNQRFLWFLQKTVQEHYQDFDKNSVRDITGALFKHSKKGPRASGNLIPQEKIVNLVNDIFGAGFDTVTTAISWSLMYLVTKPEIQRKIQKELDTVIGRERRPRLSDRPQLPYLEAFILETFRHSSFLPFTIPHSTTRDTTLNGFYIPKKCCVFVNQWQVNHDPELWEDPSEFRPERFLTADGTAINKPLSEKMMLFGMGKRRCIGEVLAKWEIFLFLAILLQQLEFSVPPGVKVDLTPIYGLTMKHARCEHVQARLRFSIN

Cytochrome P450 2C19 = Cytochrome P450 2C19 (Homo sapiens, UniProt P33261); assay: Cytochrome panel assay with activity outcomes. Panel member name: p450-cyp2c19 Compounds with AC50 equal or less than 10 uM are considered active; type: functional; details: read-out: AC50
Sequence of Cytochrome P450 2C19 (P33261 whole entry): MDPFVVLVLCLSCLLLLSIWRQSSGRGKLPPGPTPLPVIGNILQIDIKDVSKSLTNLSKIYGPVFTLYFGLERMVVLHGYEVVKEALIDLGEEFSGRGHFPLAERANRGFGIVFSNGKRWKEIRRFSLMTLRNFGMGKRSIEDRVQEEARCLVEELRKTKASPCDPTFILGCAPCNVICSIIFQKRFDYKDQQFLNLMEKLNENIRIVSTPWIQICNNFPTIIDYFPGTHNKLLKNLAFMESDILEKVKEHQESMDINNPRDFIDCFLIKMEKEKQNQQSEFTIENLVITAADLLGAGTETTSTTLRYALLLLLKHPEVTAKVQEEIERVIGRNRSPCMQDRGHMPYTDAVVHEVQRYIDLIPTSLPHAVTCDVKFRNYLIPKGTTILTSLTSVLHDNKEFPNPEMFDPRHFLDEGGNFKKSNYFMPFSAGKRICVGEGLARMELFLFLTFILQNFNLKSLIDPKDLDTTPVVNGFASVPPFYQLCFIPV

[7] = biological target: T4, Heat shock factor protein 1 (Mus musculus, UniProt P38532); assay: inhibition of MG132-induced HSE-luciferase signal, confirmation, cell-based, NIH3T3, luminescence, dose retest (AID 2382); type: functional;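 further: NIH3T3 fibroblasts with HSF1-driven luciferase reporter stressed by proteasome inhibitor MG132; luminescence from HSF1-driven luciferase expression after 8 hours of MG132 stress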
T4 sequence (P38532 whole entry): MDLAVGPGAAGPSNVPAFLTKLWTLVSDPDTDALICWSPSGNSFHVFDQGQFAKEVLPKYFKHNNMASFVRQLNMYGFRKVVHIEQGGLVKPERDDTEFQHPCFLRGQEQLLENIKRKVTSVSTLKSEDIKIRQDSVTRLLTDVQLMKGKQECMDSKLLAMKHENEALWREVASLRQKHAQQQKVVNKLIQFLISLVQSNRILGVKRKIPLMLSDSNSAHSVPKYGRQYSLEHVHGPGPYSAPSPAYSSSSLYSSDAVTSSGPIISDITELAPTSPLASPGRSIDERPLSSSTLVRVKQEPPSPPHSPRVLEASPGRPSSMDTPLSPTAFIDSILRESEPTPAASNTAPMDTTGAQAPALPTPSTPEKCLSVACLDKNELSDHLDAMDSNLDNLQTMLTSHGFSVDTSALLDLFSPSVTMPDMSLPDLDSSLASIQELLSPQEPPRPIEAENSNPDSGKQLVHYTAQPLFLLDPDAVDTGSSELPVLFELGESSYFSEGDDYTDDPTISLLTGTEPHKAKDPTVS

[8] = biological target: T5, Microphthalmia-associated transcription factor (Homo sapiens, UniProt O75030); assay: TRPM1 promoter luciferase signal decrease, dose response, MITF inhibitor project, cell-based, SK-MEL-5, cherry-picked, set 3 (AID 493073); type: functional
T5 sequence (O75030 whole entry): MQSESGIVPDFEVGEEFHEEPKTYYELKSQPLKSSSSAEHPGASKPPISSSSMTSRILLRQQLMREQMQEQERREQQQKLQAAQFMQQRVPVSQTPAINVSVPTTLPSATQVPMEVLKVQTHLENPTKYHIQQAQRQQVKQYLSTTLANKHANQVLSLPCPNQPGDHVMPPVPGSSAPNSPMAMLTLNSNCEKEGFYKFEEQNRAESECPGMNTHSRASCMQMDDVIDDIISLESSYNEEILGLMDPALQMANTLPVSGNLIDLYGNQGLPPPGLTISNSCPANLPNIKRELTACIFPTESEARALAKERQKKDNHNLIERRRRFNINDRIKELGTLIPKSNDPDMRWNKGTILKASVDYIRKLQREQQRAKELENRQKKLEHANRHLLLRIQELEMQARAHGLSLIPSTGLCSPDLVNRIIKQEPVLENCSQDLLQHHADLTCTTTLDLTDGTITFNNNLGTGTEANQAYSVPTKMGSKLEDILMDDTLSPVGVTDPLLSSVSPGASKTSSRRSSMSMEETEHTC

BJ [9] = assay: cytotoxicity toward BJ-TERT fibroblasts, dose response, cell-based, RAS-independent, luminescence (AID 1933); type: functional; details: Homo sapiens
BJ [10] = assay: cells; type: functional, cell-based; details: Homo sapiens
[11] = cytotoxicity toward DRD oncogenic fibroblasts, dose response, cell-based, non-viral oncogenic, luminescence (AID 1934); type: functional; details: Homo sapiens
BJ [12] = assay: cytotoxicity toward Ras-transformed BJeLR fibroblasts, dose response, cell-based, alamar blue fluorescence, cherrypicked samples (AID 2631); type: functional; details: Homo sapiens;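 further: confirmatory dose-response assay in RAS-dependent BJ fibroblasts engineered with TERT, LT and ST, with cytotoxicity read by fluorescence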
BJ [13] = assay: cytotoxicity toward BJ-TERT-LT-ST fibroblasts, dose response, cell-based, RAS-independent, luminescence (AID 1935); type: functional; details: Homo sapiens;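 further: BJ fibroblasts immortalized with TERT plus LT and ST oncogenes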
[14] = intracellular Trypanosoma cruzi inhibitors in host cells – cell-based, plate reader, cherry-pick samples, set 3, dose response (AID 651818); type: functional;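 further: compounds incubated with infected cells for about four days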
P388 = assay: cells; type: functional; details: Mus musculus
SN12K1 = assay: cells; type: functional; details: Homo sapiens
[15] = Luminescence Cell-Based Dose Response HTS to Identify Inhibitors of 5'UTR Stem-Loop Driven Prion Protein mRNA Translation in H4 Neuroglioblastoma Cells. [Related pubchem assays: 1827 (Project Summary), 1813 (Primary HTS)]; type: functional
[16] = inhibitors of firefly luciferase expression or activity, dose response, H4 neuroglioma cells, luminescence (AID 1990); type: functional, cell-based
[17] = inhibitors of SNCA 5'UTR-driven reporter translation, confirmation, H4 neuroglioma cells, luminescence (AID 1988); type: functional, cell-based
P388/ADR = assay: cells; type: functional; details: Mus musculus

Cc1cc(N2CCN(c3ccccc3)CC2)n2cc(-c3ccccc3)nc2n1
IC50 (cells): 40 µM (active) | CC50 [1]: 45.6 µM (active)

Cc1c(Cc2ccccc2)c(=O)oc2c(C)c(OCC(=O)NC[C@H]3CC[C@H](C(=O)O)CC3)ccc12
IC50 [2]: 4.87 µM (active)

Cc1onc(C(=O)Nc2sc3c(c2C#N)CCCC3)c1[N+](=O)[O-]
EC50 [3]: 1.59 µM (active) | EC50 [4]: > 75 µM (inactive)

Cc1ccc(S(=O)(=O)NNC(=O)C(=O)NNc2ccccn2)cc1
IC50 [5]: > 20 µM (inactive) | AC50 [6]: 0.213 µM (active)

CCOc1c2ccc(C(=O)NCc3ccccc3OC)cc2nn1CC
AC50 (Cytochrome P450 2C9): inconclusive | AC50 (Cytochrome P450 3A4): 15.8 µM (inconclusive) | AC50 (Cytochrome P450 1A2): 17.8 µM (inconclusive) | AC50 (Cytochrome P450 2C19): 39.8 µM (inconclusive) | EC50 [7]: > 195 µM (not active)

N=C1/C(=C/c2cccn2-c2ccc([N+](=O)[O-])cc2)C(=O)N=C2SC=CN12
EC50 [3]: 1.33 µM (active) | EC50 [4]: > 160 µM (inactive)

Cc1cccc(N(C(=O)c2snc(C(N)=O)c2N)C(C(=O)NCC2CCCO2)c2cccs2)c1 (stereo unspecified)
IC50 [5]: > 20 µM (inactive)

Cn1cc(-c2nc3cnc(Oc4cccc(Cl)c4)nc3n(CCC#N)c2=O)c2ccccc21
AC50 (Cytochrome P450 2C9): inconclusive | AC50 (Cytochrome P450 3A4): 7.94 µM (inconclusive) | AC50 (Cytochrome P450 1A2): 2.51 µM (inconclusive)

Cc1c(NC(=S)/C=C2\N(C)c3ccccc3C2(C)C)c(=O)n(-c2ccccc2)n1C
AC50 (Cytochrome P450 2C9): inconclusive

O=C(NNC(=O)c1cc2ccccc2cc1O)NC1CCCCC1
EC50 [3]: > 38 µM (not active) | EC50 [4]: > 150 µM (inactive)

NC(=O)c1nsc(C(=O)N(c2ccc(Cl)cc2)C(C(=O)NCC2CCCO2)c2cccs2)c1N (stereo unspecified)
IC50 [5]: > 20 µM (inactive)

CN(C)S(=O)(=O)c1cccc(NC(=O)CSc2nc3c(cc2C#N)C(=O)CC(C)(C)C3)c1
AC50 [8]: 9.02 µM (active)

COc1ccc(N(C(=O)c2snc(C(N)=O)c2N)C(C(=O)NC2CCCC2)c2cccs2)cc1OC (stereo unspecified)
IC50 [5]: > 20 µM (inactive)

Cc1c(CCOC(=O)CC23CC4CC(CC(C4)C2)C3)sc[n+]1CC(=O)c1ccccc1
IC50 [5]: > 20 µM (inactive)

CCOC(=O)/C=C1\CN(C(C)c2ccccc2)S(=O)(=O)c2ccccc21 (stereo unspecified)
IC50 [2]: 12.3 µM (active)

COc1ccccc1N1CCN(c2nc3c(C)cccn3c(=O)c2C=O)CC1
AC50 (Cytochrome P450 2C9): inconclusive | AC50 (Cytochrome P450 1A2): 12.6 µM (inconclusive) | AC50 (Cytochrome P450 2C19): 1.12 µM (inconclusive)

Cc1cccc(C2NC(=O)c3c(sc(C)c3C)N2)c1O (stereo unspecified)
AC50 (Cytochrome P450 2C9): inconclusive

COc1ccccc1-c1sc2cc3c(cc2c1-c1ccc(OCCN2CCCCC2)cc1)OCO3
IC50 [5]: > 20 µM (inactive)

CCCC(=O)Nc1ccc(C(=O)N/N=C/c2ccc([N+](=O)[O-])o2)cc1
EC50 (BJ [9]): 17.2 µM (active) | EC50 (BJ [10]): 0.38 µM (active) | EC50 [11]: 26.5 µM (active) | EC50 (BJ [12]): 0.123 µM (active) | EC50 (BJ [13]): 0.534 µM (inconclusive)

COc1ccc(S(=O)(=O)Nc2ccc3c(c2)CC(=O)N([C@@H](C)CO)C[C@H](C)[C@H](CN(C)Cc2ccc(C(=O)Nc4ccccc4N)cc2)O3)cc1
AC50 [14]: 3.23 µM (active)

C[C@@H]1CCCCO[C@@H](CN(C)Cc2ccc(Cl)c(Cl)c2)[C@@H](C)CN([C@H](C)CO)C(=O)c2cc(NC(=O)NC3CCCCC3)ccc2O1
AC50 [14]: 5.48 µM (active)

COc1ccc(S(=O)(=O)N(C)C[C@H]2Oc3ccc(NS(=O)(=O)c4ccc(Cl)cc4)cc3CC(=O)N([C@H](C)CO)C[C@H]2C)cc1
AC50 [14]: 4.94 µM (active)

C[C@@H]1CN([C@@H](C)CO)C(=O)Cc2cc(NC(=O)Cc3ccccc3)ccc2O[C@@H]1CN(C)Cc1ccc(Oc2ccccc2)cc1
AC50 [14]: 2.61 µM (active)

C[C@@H]1CCCCO[C@H](CN(C)C(=O)Nc2ccc(C(F)(F)F)cc2)[C@@H](C)CN([C@H](C)CO)C(=O)c2cc(NC(=O)C3CCCCC3)ccc2O1
AC50 [14]: 1.12 µM (active)

C[C@H]1CN([C@@H](C)CO)C(=O)Cc2cc(NC(=O)NC3CCCCC3)ccc2O[C@@H]1CN(C)Cc1ccc(Oc2ccccc2)cc1
AC50 [14]: 6.74 µM (active)

COc1ccc(S(=O)(=O)Nc2ccc3c(c2)CC(=O)N([C@H](C)CO)C[C@@H](C)[C@@H](CN(C)Cc2ccc(C(=O)Nc4ccccc4N)cc2)O3)cc1
AC50 [14]: 2.9 µM (active)

CC1CN(/N=C/c2ccc([N+](=O)[O-])o2)C(=N)O1 (stereo unspecified)
AC50 [8]: 24.1 µM (active)

COC(=O)C[C@](O)(CCCC(C)(C)O)C(=O)O[C@@H]1C(OC)=C[C@]23CCCN2CCc2cc4c(cc2[C@H]13)OCO4 [OMACETAXINE MEPESUCCINATE]
GI50 (P388): 0.00388 µM (active) | GI50 (SN12K1): 0.0115 µM (active) | EC50 [15]: < 0.1 µM (active) | EC50 [16]: < 0.1 µM (active) | EC50 [17]: < 0.1 µM (active) | GI50 (P388/ADR): 0.247 µM (active) | EC50 (BJ [12]): 0.00488 µM (active)
